Source: PMC3532212 (PLoS ONE, 2012)
Several values for one entry are separate records, joined by “and”; a condition that tells them apart may be missing. Equal values may be shown once.

What was measured:
Assay type in all cases: in vivo
anesthetized rats = assay: Anesthetized rat cardiovascular study (mean arterial pressure, heart rate); details: for heart rate, change below baseline / mean arterial pressure, change below baseline: anesthetized rat, FTY720 i.v.
Procedure: The cardiovascular effects of FTY720 and BAF312 were tested in anesthetized rats (180–200 g). In brief, male Sprague Dawley rats (Charles River) were anesthetized with Inactin (110 mg/kg i.p.) and a tracheotomy performed. The femoral artery and veins were catheterized for measurement of mean arterial pressure and heart rate, collection of blood samples at 20-min intervals (0.2 mL/sample), and for compound infusion/hydration as previously described, [24]; blood samples were also withdrawn in vehicle-treated control rats. FTY720, infused as a hydrochloride salt (0.1, 0.3, 1.0 mg/kg/20-min free base equivalent solubilized in a 100% PEG-400 vehicle), or BAF312 (0.5, 1.5, 5.0 mg/kg/20-min solubilized in a 100% PEG-400 vehicle) were administered via three escalating 20-min infusions (0.011 mL/min) followed by a 1-hr post-treatment period. A blood sample was withdrawn at 20, 40, 60, and 120-minutes for analysis of plasma concentrations of the parent compound, and in the case of FTY720, also the phosphorylated metabolite, (S)-FTY720-P. Statistical significance (p<0.05) was based on a t-test comparing treatment change from baseline (baseline was defined as the period from −30 to 0 minutes) vs. vehicle controls change from baseline at each timepoint without adjustment for multiple comparisons. In a separate group of anesthetized rats in which left ventricular (LV) contractility was also recorded with a Millar pressure transducer introduced into the left ventricle, BAF312 was infused in the same dosing regimen as the studies described above (0.5, 1.5, 5.0 mg/kg/20-min solubilized in a 100% PEG-400 vehicle) and effects on LV dP/dtmax were recorded.

[1] = Plasma concentrations after a single oral dose in rats; details: rat; for concentration at 4 hr / concentration at 8 h / concentration at 24 h / concentration at 48 h / concentration at 72 h: male, Sprague Dawley, plasma, mean±SEM; for concentration at 4 hr: 4 hr post-dose; for concentration at 8 h: 8 hr post-dose; for concentration at 24 h: 24 hr post-dose; for concentration at 48 h: 48 hr post-dose; for concentration at 72 h: 72 hr post-dose
Procedure: (§1) Mean arterial pressure was assessed in conscious, freely moving male Sprague Dawley rats (n = 6–8/group; Charles River) instrumented with telemetry transmitters (DSI-Ponemah) and housed in metabolism cages as previously described, [26]. Tested compounds were solubilized in a 0.5% Methylcellulose/0.015% Tween 80 vehicle that was also dosed alone (p.o./QD, 5 mL/kg) as a control in the study. FTY720 was administered p.o. at 0.3, 1.0, 3.0, 10.0 mg/kg p.o. as a single dose or p.o./QD at 0.5, 1.5, and 5.0 mg/kg in a chronic study. BAF312 was administered p.o/QD at 0.3, 3.0, and 30 mg/kg as a single dose and in a chronic study. Mean arterial pressure and heart rate are shown as 1-hr and/or 24-hr mean values±SEM as described in the results. Blood samples in satellite rats were withdrawn at various timepoints as described in the results for analysis of plasma concentrations of the parent compound and, in the case of FTY720, also the phosphorylated metabolite, (S)-FTY720-P. Statistical analysis for the single-dose acute studies was based on one-way ANOVA to compare the treatment groups vs. vehicle for each time period after dosing (0–24 hrs, 24–48 hrs, and 48–72 hrs); statistical significance (p<0.05) was detected by Dunnett’s post-hoc test to compare treatment with vehicle controls. The statistical analysis in the chronic studies were based on one-way ANOVA with repeated measures to compare the treatment arms; statistical significance (p<0.05) was detected by Dunnett’s post-hoc test to compare treatment with vehicle controls.

[2] = test system: conscious, telemetry-instrumented rats; assay: Telemetry-instrumented conscious rats, repeat-dosing hemodynamics; details: conscious rat; for 24-hr mean change in heart rate: vehicle −2±1; for mean arterial pressure increase relative to baseline, 24-hr mean over the treatment period: vehicle 3.7±0.5
Procedure: as §1, with “BAF312 was administered p.o/QD at 0.3, 3.0, and 30 mg/kg as a single dose and in a chronic study.” left out

[3] = end of 0.1 mg/kg/20 min infusion
[4] = end of 0.3 mg/kg/20 min infusion
[5] = end of 1.0 mg/kg/20 min infusion
[6] = FTY720 0.3 mg/kg single oral dose
[7] = FTY720 1.0 mg/kg single oral dose
[8] = FTY720 3.0 mg/kg single oral dose
[9] = FTY720 10.0 mg/kg single oral dose

With `CCCCCCCCc1ccc(CCC(N)(CO)CO)cc1` [FTY720] the “heart rate, change below baseline” value (anesthetized rats; [3]) was −71±26 beats/min, the “mean arterial pressure, change below baseline” value (anesthetized rats; [3]) was −9±3 mmHg and the “heart rate, change below baseline” value (anesthetized rats; [4]) was −139±37 beats/min. For the same molecule, the “mean arterial pressure, change below baseline” value (anesthetized rats; [4]) was −22±4 mmHg, the “heart rate, change below baseline” value (anesthetized rats; [5]) was −173±26 beats/min and the “mean arterial pressure, change below baseline” value (anesthetized rats; [5]) was −24±4 mmHg. For the same molecule, the “effect on heart rate of acute i.v. infusion” value (anesthetized rats; anesthetized rats, FTY720 0.1, 0.3, 1.0 mg/kg/20 min or BAF312 0.5, 1.5, 5.0 mg/kg/20 min) was “acute bradycardia”, the concentration at 4 hr [1, 6] was 10 ± 5 nM and the concentration at 8 h [1, 6] was 14 ± 5 nM. For the same molecule, the concentration at 24 h [1, 6] was 15 ± 3 nM, the concentration at 48 h [1, 6] was 13 ± 1 nM and the concentration at 72 h [1, 6] was 7 ± 2 nM. For the same molecule, the concentration at 4 hr [1, 7] was 25 ± 3 nM, the concentration at 8 h [1, 7] was 36 ± 5 nM and the concentration at 24 h [1, 7] was 22 ± 2 nM. The concentration at 48 h [1, 7] was 12 ± 1 nM, the concentration at 72 h [1, 7] was 10 ± 1 nM and the concentration at 4 hr [1, 8] was 62 ± 4 nM. The concentration at 8 h [1, 8] was 79 ± 17 nM, the concentration at 24 h [1, 8] was 91 ± 19 nM and the concentration at 48 h [1, 8] was 53 ± 15 nM. The concentration at 72 h [1, 8] was 34 ± 4 nM, the concentration at 4 hr [1, 9] was 146 ± 18 nM and the concentration at 8 h [1, 9] was 274 ± 46 nM. The concentration at 24 h [1, 9] was 301 ± 31 nM, the concentration at 48 h [1, 9] was 143 ± 16 nM and the concentration at 72 h [1, 9] was 101 ± 21 nM. For the same molecule, the “Plasma concentration at Tmax” value [1, 6] was 15 ± 3 nM, the “Plasma concentration at Tmax” value [1, 7] was 36 ± 5 nM and the “Plasma concentration at Tmax” value [1, 8] was 91 ± 19 nM. For the same molecule, the “Plasma concentration at Tmax” value ([1]; FTY720 10 mg/kg single oral dose) was 301 ± 31 nM, the “time post-dose through which plasma values were detectable” value ([1]; FTY720 single oral dose) was “at least 72 hrs” and the “24-hr mean change in heart rate” value ([2]; FTY720 0.5 mg/kg p.o./QD repeat dosing) was 11±2 beats/min. For the same molecule, the “mean arterial pressure increase relative to baseline, 24-hr mean over the treatment period” value ([2]; FTY720 0.5 mg/kg/d p.o./QD, 0.5 mg/kg/day) was 8.4 mmHg and 8.4±0.4 mmHg, the “24-hr mean change in heart rate” value ([2]; FTY720 1.5 mg/kg p.o./QD repeat dosing) was 1±1 beats/min and the “mean arterial pressure increase relative to baseline, 24-hr mean over the treatment period” value ([2]; FTY720 1.5 mg/kg/d p.o./QD, 1.5 mg/kg/day) was 12.8 mmHg and 12.8±0.4 mmHg. For the same molecule, the “24-hr mean change in heart rate” value ([2]; FTY720 5.0 mg/kg p.o./QD repeat dosing) was 1±3 beats/min, the “mean arterial pressure increase relative to baseline, 24-hr mean over the treatment period” value ([2]; FTY720 5.0 mg/kg/d p.o./QD, 5 mg/kg/day) was 16.2 mmHg and 16.2±0.8 mmHg and the “bradycardia during repeat dosing” value ([2]; FTY720 0.5, 1.5, 5.0 mg/kg/d p.o.) was “no acute or sustained bradycardia”.
